Data reported in US11096931B2, “Amide derivatives useful in the treatment of HBV infection or HBV-induced diseases” (Janssen Sciences Ireland Unlimited Company, priority 2019, dated 2021).
Like-named read-outs stand apart in the source and are kept apart here.

Columns and labels:
HBV = test: anti HBV activity, HepG2.117 cell line, intracellular HBV DNA by real-time PCR; assay type: cell-based, hepatitis B virus; details: for EC50: Hepatitis B virus, read-out: HBV-AVE-HepG2.117_intra_EC50
Protocol: The anti HBV activity was measured using the HepG2.117 cell line, a stable, inducible HBV producing cell line, which replicates HBV in the absence of doxicycline (Tet-off system). The HepG2 cell line is available from ATCC® under number HB-8065. Transfection of the HepG2 cell line can be as described in Sun and Nassal 2006 Journal of Hepatology 45 (2006) 636-645 “Stable HepG2-and Huh7-based human hepatoma cell lines for efficient regulated expression of infectious hepatitis B virus”.
For the antiviral assay, HBV replication was induced, followed by a treatment with serially diluted compound in 96-well plates. After 3 days of treatment, the antiviral activity was determined by quantification of intracellular HBV DNA using real-time PCR and an HBV specific primer set and probe.

[1] = Cytotoxicity, ATPlite cell viability; assay type: cell-based; details: human, mean value, HepG2 or HepG2.117 cells
Protocol: Cytotoxicity of the compounds was tested using HepG2 or HepG2.117 cells, incubated for 4 days in the presence of compounds. The viability of the cells was assessed using the Perkin Elmer ATPlite Luminescence Assay System.”

[2] = 72 h, mean value, HepG2.117 cells, 3 days of treatment, intracellular HBV DNA

SMILES	EC50 (HBV; [2]) [nM]	CC50 at 4 days [1] [nM]	EC50 (HBV; HepG2.117, 72 h) [nM]	improved anti-HBV activity, fold improvement over Ref. compound 59 (HBV; from table 4 EC50 values) [fold]
Cn1cc(C(=O)C(=O)N[C@@]2(c3cn[nH]n3)CCC(F)(F)C2)cc1C(=O)Nc1ccc(F)c(C#N)c1 (single isomer, unassigned) [18*S]	64	20700		
Cn1cc(C(=O)C(=O)NC2(c3cn[nH]n3)CC(F)(F)C2)c(Cl)c1C(=O)Nc1ccc(F)c(C#N)c1 [Compound 8]	6	> 50000		
Cn1cc(C(=O)C(=O)NC2(c3nc[nH]n3)CC(F)(F)C2)cc1C(=O)Nc1ccc(F)c(C#N)c1 [Compound 30]	142	31100		
Cc1c(C(=O)C(=O)NC2(c3cn[nH]n3)CC(F)(F)C2)c(C2CC2)n(C)c1C(=O)Nc1ccc(F)c(Cl)c1 [Compound 54]	3	26300		
Cn1cc(C(=O)C(=O)N[C@H](c2cnn[nH]2)C(C)(C)C)cc1C(=O)Nc1ccc(F)c(C#N)c1 (stereo in doubt) [Compound 11]	100	26000		
Cc1c(C(=O)C(=O)N[C@H](CC(F)(F)F)c2cn[nH]n2)cn(C)c1C(=O)Nc1ccc(F)c(C#N)c1 (single isomer, unassigned) [47*R]	21	> 50000		
Cc1c(C(=O)C(=O)NC2(c3cn[nH]n3)CC(F)(F)C2)cn(C)c1C(=O)Nc1ccnc(C(F)F)c1 [Compound 53]	33	> 50000		
Cn1cc(C(=O)C(=O)NC(CC(F)(F)F)c2cn[nH]n2)cc1C(=O)Nc1ccc(F)c(C#N)c1 (stereo not drawn) [Compound 20RS]	61	12000		
Cn1c(C(=O)Nc2ccc(F)c(C#N)c2)c(F)c(C(=O)C(=O)NC2(c3cn[nH]n3)CC(F)(F)C2)c1C1CC1 [Compound 52]	9	> 40600		
Cc1c(C(=O)C(=O)NC(CC(F)F)c2cn[nH]n2)c(C)n(C)c1C(=O)Nc1ccc(F)c(C#N)c1 (stereo not drawn) [Compound 29]	9	> 50000		
Cn1cc(C(=O)C(=O)NC2(c3c[nH]nn3)CC2)cc1C(=O)Nc1ccc(F)c(C#N)c1 [Compound 10]	150	> 50000		
Cn1cc(C(=O)C(=O)N[C@@H](CC(F)F)c2cn[nH]n2)cc1C(=O)Nc1ccc(F)c(C#N)c1 (single isomer, unassigned) [24*S]	562	28200		
Cc1c(C(=O)C(=O)NC2(c3cn[nH]n3)CC(F)(F)C2)c(C#N)n(C)c1C(=O)Nc1ccc(F)c(Cl)c1 [Compound 55]	809	> 50000		
Cc1c(C(=O)C(=O)N[C@@H](CC(F)(F)F)c2cn[nH]n2)cn(C)c1C(=O)Nc1ccc(F)c(C#N)c1 (single isomer, unassigned) [47*S]	11	> 50000		
Cc1cc(NC(=O)c2cc(C(=O)C(=O)NCc3cn[nH]n3)cn2C)ccc1F [Ref. 59, reference compound]	583	> 50000		
Cc1cc(NC(=O)c2cc(C(=O)C(=O)NC(C)(C)c3cn[nH]n3)cn2C)ccc1F [Compound 9]	19	> 50000		
Cc1c(C(=O)C(=O)N[C@](C)(c2cn[nH]n2)C(F)F)cn(C)c1C(=O)Nc1ccc(F)c(C#N)c1 (single isomer, unassigned) [48*R]	12	> 50000		
Cc1nc(C2(NC(=O)C(=O)c3cc(C(=O)Nc4ccc(F)c(C#N)c4)n(C)c3)CC(F)(F)C2)n[nH]1 [Compound 22]	124	29500		
Cn1cc(C(=O)C(=O)NC2(c3cnnn3C)CC(F)(F)C2)c(Cl)c1C(=O)Nc1ccc(F)c(Cl)c1 [Compound 14]	4	> 50000		

SMILES	EC50 (HBV; [2]) [nM]	CC50 at 4 days [1] [nM]	EC50 (HBV; HepG2.117, 72 h) [nM]	improved anti-HBV activity, fold improvement over Ref. compound 59 (HBV; from table 4 EC50 values) [fold]
Cn1cc(C(=O)C(=O)NC2(c3cn[nH]n3)CC(F)(F)C2)cc1C(=O)Nc1ccc(F)c(C#N)c1 [Compound 4]	63	8200		
Cc1c(C(=O)C(=O)N[C@@H](CC(C)(F)F)c2cn[nH]n2)cn(C)c1C(=O)Nc1ccc(F)c(C#N)c1 (single isomer, unassigned) [49*S]	27	> 50000		
Cc1cc(NC(=O)c2cc(C(=O)C(=O)NC(C)c3cn[nH]n3)cn2C)ccc1F (stereo not drawn) [Compound 1, N-(4-Fluoro-3-methylphenyl)-1-methyl-4-(oxo{[1-(2H-1,2,3-triazol-4-yl)ethyl]amino}acetyl)-1H-pyrrole-2-carboxamide]		> 50000	51	~10
Cn1cc(C(=O)C(=O)NC2(c3ncc[nH]3)CC(F)(F)C2)cc1C(=O)Nc1ccc(F)c(C#N)c1 [Compound 43]	315	6600		
Cc1c(C(=O)C(=O)NC2(c3cn[nH]n3)CC(F)(F)C2)c(Cl)n(C)c1C(=O)Nc1ccc(F)c(Br)c1 [Compound 40]	4	6600		
Cn1cc(C(=O)C(=O)NC2(c3cn[nH]n3)CS(=O)(=O)C2)cc1C(=O)Nc1ccc(F)c(C#N)c1 [Compound 21]	1270	> 50000		
Cc1c(C(=O)C(=O)N[C@]2(c3cn[nH]n3)C[C@H](O)C2)cn(C)c1C(=O)Nc1ccc(F)c(C#N)c1 [Compound 58cis]	90	> 50000		
Cc1c(C(=O)C(=O)NC2(c3cn[nH]n3)CC(F)(F)C2)c(F)c(C(=O)Nc2ccc(F)c(C#N)c2)n1C [Compound 42]	2	> 50000		
Cc1c(C(=O)C(=O)NC2(c3cn[nH]n3)CC(F)(F)C2)c(Cl)c(C(=O)Nc2ccc(F)c(C#N)c2)n1C [Compound 23]	4	> 50000		
Cc1c(C(=O)C(=O)N[C@]2(c3cn[nH]n3)CCC(F)(F)C2)cn(C)c1C(=O)Nc1ccc(F)c(Cl)c1 (single isomer, unassigned) [25*R]	3	18600		
Cc1c(C(=O)C(=O)N[C@H](CC(C)(F)F)c2cn[nH]n2)cn(C)c1C(=O)Nc1ccc(F)c(C#N)c1 (single isomer, unassigned) [49*R]	16	> 50000		
Cn1cc(C(=O)C(=O)NC2(c3cn[nH]n3)CC(F)(F)C2)c(C2CC2)c1C(=O)Nc1ccc(F)c(C#N)c1 [Compound 38]	24	> 50000		
Cn1cc(C(=O)C(=O)NC2(c3cn[nH]n3)CC(F)(F)C2)c(F)c1C(=O)Nc1ccc(F)c(Cl)c1 [Compound 7]	11	13500		
Cn1cc(C(=O)C(=O)N[C@@]2(c3cn[nH]n3)C[C@@H]2C(F)F)cc1C(=O)Nc1ccc(F)c(C#N)c1 (single isomer, unassigned) [27*R*R]	273	24300		
Cc1c(C(=O)C(=O)N[C@@H](CC(F)(F)F)c2cn[nH]n2)c(C)n(C)c1C(=O)Nc1ccc(F)c(C#N)c1 (single isomer, unassigned) [44*S]	< 12	> 50000		
Cc1c(C(=O)C(=O)N[C@@](C)(c2cn[nH]n2)C(F)F)cn(C)c1C(=O)Nc1ccc(F)c(C#N)c1 (single isomer, unassigned) [48*S]	4	> 50000		
Cc1c(C(=O)C(=O)NC2(c3cn[nH]n3)CC(F)(F)C2)cn(C)c1C(=O)Nc1ccc(F)c(C#N)c1F [Compound 46]	11	> 50000		
Cn1cc(C(=O)C(=O)N[C@]2(c3cn[nH]n3)C[C@H]2C(F)F)cc1C(=O)Nc1ccc(F)c(C#N)c1 (single isomer, unassigned) [27*S*S]	92	> 50000		
